In patent publication US11298354B2, “Methods of use and pharmaceutical combinations of HDAC inhibitors with BET inhibitors” (DANA-FARBER CANCER INSTITUTE, INC., priority 2016, dated 2022):

Legend:
[1] = test system: PBMCs obtained from non-small cell lung cancer (NSCLC) patients; experiment: NSCLC patient PBMCs cultured with Compound A or entinostat, FACS; settings: for expression of CD86 on CD14+ monocytes / expression of MHC class II molecules on CD14+ monocytes: 24-hour culture, FIG. 4A; for expression of CD69 activation marker on conventional CD8+ and CD4+ T cells: patient PBMC cultures, FIG. 3A, 3B
Text: Specifically, the phenotype of CD14+CD11b+ monocytes in the peripheral blood of healthy subjects and NSCLC patients, or that of CD14-CD68+CD11b+ macrophages within disaggregated NSCLC tumors were investigated. […] Peripheral blood mononuclear cells (PBMCs) were isolated by Ficoll gradient from fresh or frozen blood samples obtained from healthy donors and consented patients under IRB-approved institutional protocols. […] Cells were then washed and were subjected to phenotypic analysis by FACS. In some experiments, these cultures were performed with purified CD14+ monocytes or CD3+ T cells after purifications from whole PBMCs.

[2] = test system: peripheral blood mononuclear cells (PBMCs) from healthy donors; experiment: Healthy donor PBMCs cultured with HDAC inhibitors, FACS; type: cell-based, human; settings: for percentage of CD4+FOXP3+ Tregs within PBMCs: FIG. 1C
Text: HDAC inhibition results in tumor growth arrest in immunocompetent animal models. The effects of class I and class II HDAC inhibition on leukocytes were investigated using peripheral blood mononuclear cells (PBMCs) obtained from healthy donors.

[3] = test system: lung adenocarcinomas of KP and TL mice; experiment: 7-day treatment of KP and TL lung adenocarcinoma mice, tumor immune profiling; type: in vivo, mouse
Text: Tumor-associated immune cells are important in shaping the course of tumor progression and anti-tumor immunity. The effects of an HDAC6 selective inhibitor on phenotypic and functional changes, especially in the context of tumor antigens, were investigated. Specifically, the effects of an HDAC6 selective inhibitor on immune cells infiltrating lung adenocarcinomas that spontaneously develop in fully immunocompetent genetically engineered mice harboring activating Kras^G12D mutation and concurrent p53 loss (designated as KP), or those with T790M/L858R EGFR mutations (designated TL) were studied. […] Single cell suspensions of lung tumor nodules were generated and subjected to FACS analysis to assess the proportions, phenotype and function of CD45+ immune cell subsets in the tumors isolated from both KP and TL mice.
Mice with existing adenocarcinomas were treated once daily with Compound A for seven days prior to evaluation of dissociated tumors by comprehensive multi-parameter flow cytometry. […] Such increases in the CD8:Treg ratios are often associated with enhanced anti-tumor response. […]
(§1) After incubation, cells were treated with red blood cell lysis buffer and were filtered through a 70 μm cell strainer. After centrifugation, cell pellet was re-suspended in 1×PBS/2% FBS. Cells were counted, and ˜0.5-1×10^6 cells were stained for surface markers in PBS+2% FBS for 15 minutes at 4° C. Intracellular staining was performed for Foxp3, Ki67, CTLA-4, and Bcl-2, using the Foxp3 staining buffer according to the manufacturer's instructions while the cytofix/cytoperm kit (BD Bioscience) was used for intracellular cytokine staining. Briefly, cells were stained for surface markers including CD4, CD8, CD3, followed by intracellular staining with PE-conjμgated anti-IFN-γ, BV421-conj μgated anti-TNF-α, APC-conjugated IL-2, FITC-conjugated Perforin and CD107a (where indicated), or isotype-matched mAbs after permeabilization and fixation. In all stained samples, dead cells were excluded using Live/Dead Fixable dead cell staining kit (Invitrogen). Cells were acquired on the LSR Fortessa (BD Biosciences) and were analyzed with the flowjo software (Treestar).
(§2) For intracellular cytokine detection assays, immune cells from tumors of treated or control mice were obtained after ficoll gradient separation as previously described. 1×10^6 cells were cultured with PMA (50 ng) and Ionomycin (500 ng) for 6 hours at 37° C., and GolgiPlμg (BD Pharmingen) was added for the last 5 hours of culture. For equivalent assays utilizing human PBMCs, 0.5×10^6 cells were similarly stimulated prior to analysis.
Tumor-associated macrophages (TAMs; CD45+CD11c+CD11b^lo) and CD45+CD3+CD25^lo/− T cells were sorted into 96-well plates containing 50 μl of 1×PBS with Recombinant Ribonuclease Inhibitor (Life Technologies) isolated from tumor tissues by FACS sorting. Briefly, tumor cell suspensions were incubated with live/dead fixable dye after FcγR blocking and subsequently stained with antibodies against CD45, CD3, CD8, CD11b, and CD11c. Smart-Seq2 libraries were prepared by the Broad Technology Labs and sequenced by the Broad Genomics Platform.

[4] = test system: lung adenocarcinomas of KP mice; experiment: Immune profiling of KP tumor nodules after 4-6 weeks of treatment; type: in vivo, mouse
Procedure: For immune profiling, cohorts of mice were sacrificed after 4-6 weeks of treatment and tumor cell suspensions were subjected to FACS analysis. […] In addition, immune cells isolated from tumors of mice treated with indicated drugs were stimulated ex-vivo for 6 hours in the presence of golgi plug. […] Equivalent numbers of each of these populations were co-cultured for two days in the presence of tumor cell lysate.
as §1, §2

[5] = test system: CD14+ monocytes from patient PBMCs / allogeneic T cells; experiment: Mixed lymphocyte reaction with drug-exposed CD14+ monocytes; settings: monocytes cultured 24 hours with drug, 6 days co-culture, FIG. 4D
Text: For T cell proliferation assays, T cells were isolated from PBMCs by positive selection using T cell enrichment kit (Miltenyi Biotec) following the manufacturer's instructions. Cells were typically ˜90% pure. […] Cells were washed three times with RPMI+10% FBS, were counted, and were used as responder cells.

[6] = current clinical trials of hematologic cancers; cited from earlier work
[7] = test system: lung adenocarcinomas of KP mice; experiment: Long-term efficacy study in KP mice; settings: I.P. once daily, MRI, FIG. 6 and 8A
Procedure: Tumor growth was monitored weekly by MRI.
For lung tumor induction, mice received 1×10^6 cfu cre-encoding adenovirus intranasally at 5-6 weeks of age. Tumor formation (typically 6-8 weeks post inoculation) and volume was confirmed by MRI and was quantified using the 3D-slicer software. […] All mice were maintained under specific pathogen-free conditions.
JQ1 was formulated in 10% DMSO and 90% of 10% 2-hydroxylpropyl β-cyclodextrin (Sigma), and was administrated to mice at 25 mg/kg I.P. daily. Vehicle control was prepared by diluting DMSO into the related drug vehicle. […] Depletion of relevant cell types was confirmed by flow cytometry one day after the second dose using peripheral blood obtained from the tail vein.

[8] = test system: single cell suspensions from dissociated freshly resected NSCLC tumors; experiment: Dissociated NSCLC patient tumor cell cultures, FACS; type: cell-based, human; settings: 2-D tumor cell cultures, FIG. 4B
Text: DMSO was used as a control.

[9] = test system: CD3+CD4+CD25hi Treg cells from spleen of wild-type mice; experiment: Mouse splenic T cells and Tregs cultured with JQ1; type: cell-based
Text: A combination treatment with an HDAC6 selective inhibitor and a complementary immunomodulatory agent can achieve greater levels of immune-based control of tumor growth in these NSCLC models. JQ1 was previously shown to have an anti-tumor effect in KP mice in part due to downregulation of MYC and induction of apoptosis in tumor cells. […] T cells were isolated from the spleen of wild-type mice and sorted into CD3+CD25− (T cells) or CD3+CD4+CD25hi (Treg) subsets and subsequently cultured in the presence or absence of JQ1 (1 μM). Cultures were supplemented with 100 IU/mL of recombinant IL-2. Cells were washed after two days of culture and their phenotype was evaluated by FACS. For the CSFE dilution shown in FIG. 7C, 2×10^5 CFSE-labelled purified T cells obtained from the spleen of naïve mice were co-cultured with 1.0×10^5 mitomycin C treated, T-depleted spleen cells which served as APCs. 0.5 μg of soluble anti-CD3 was then added to each well along with graded numbers of Tregs (indicated by Treg:T cell ratios).

[10] = PBMCs from healthy donors, FIG. 4C
[11] = KP and TL mice, 7 days, FIG. 5K-5M
[12] = KP and TL mice, once daily for seven days, FIG. 5A-5B
[13] = JQ1 1 μM, two days of culture, FIG. 7B

O=C(CCCCCCNC(=O)c1cnc(N(c2ccccc2)c2ccccc2)nc1)NO [Compound A, 2-(diphenylamino)-N-(7-(hydroxyamino)-7-oxoheptyl)pyrimidine-5-carboxamide]
expression of CD86 on CD14+ monocytes [1]: up-regulated
expression of MHC class II molecules on CD14+ monocytes [1]: up-regulated
expression of CD69 activation marker on conventional CD8+ and CD4+ T cells [1]: substantially up-regulated
expression of CD86 on monocytes [2, 10]: increased expression
expression of MHC class II on monocytes [2, 10]: increased expression
expression of CD69 activation marker on conventional CD8+ and CD4+ T cells ([2]; healthy donor PBMC cultures, 24 hours, FIG. 3C, 3D): substantially up-regulated
percentage of CD4+FOXP3+ Tregs within PBMCs ([2]; healthy donor PBMCs, 24 hours): reduced most significantly
phospho-STAT3 expression on T cells ([2]; healthy donor PBMCs, FIG. 3E): increase
expression levels of CD86 on CD11c+CD11b lo tumor-associated macrophages [3, 11]: significantly elevated expression levels
expression levels of MHC class II on CD11c+CD11b lo tumor-associated macrophages [3, 11]: significantly elevated expression levels
CD4+Foxp3+ Treg cells among lymphoid cells [3, 12]: significant decreases
frequency of tumor-infiltrating CD8+ T cells [3, 12]: modest increases
genes associated with T cell activation and effector function (Cd69, Sell, Cd44, Prf1) in tumor-infiltrating T cells ([3]; KP mice, single cell RNA-Seq, vs vehicle, FIG. 5N): up-regulated
inhibitory receptor molecule expression on tumor-infiltrating T cells ([3]; PD-1, CTLA-4, TIM3, seven days, FIG. 5D-5G): no substantial phenotypic changes
secretion of IFN-γ and TNF-α by tumor-infiltrating CD8+ T cells ([3]; ex-vivo stimulation, vs vehicle, FIG. 5H): enhanced capacity to secrete
CD69 activation marker on tumor-infiltrating CD8+ T cells ([3]; seven days treatment, vs vehicle, FIG. 5H): increased expression levels
expression of genes associated with MHC class II (Cd74, H2-Aa) in TAMs ([3]; single cell RNA-Sequencing, vs control mice, FIG. 5N): higher expression
MHC class II molecules on TAMs ([4]; FIG. 9G): markedly promoted the up-regulation
CD86 on TAMs ([4]; FIG. 9H): markedly promoted the up-regulation
induction of allogeneic T cell proliferative responses by exposed CD14+ monocytes [5]: superior
safety profile [6]: favorable safety profile
tumor growth [7]: marginal delay
expression of CD86 on CD14-CD68+CD11b+ macrophages [8]: increased expression
expression of MHC class II on CD14-CD68+CD11b+ macrophages [8]: increased expression

O=C(CCCCCCNC(=O)c1cnc(N(c2ccccc2)c2ccccc2Cl)nc1)NO [Compound B, 2-((2-chlorophenyl)(phenyl)amino)-N-(7-(hydroxyamino)-7-oxoheptyl)pyrimidine-5-carboxamide]
percentage of CD4+FOXP3+ Tregs within PBMCs ([2]; healthy donor PBMCs, 24 hours): reduced most significantly
activation of CD8 T cells (CD69 activation marker) ([3]; KP mice, 7 days, FIG. 5I): increased activation
expression of MHCII on tumor associated macrophages ([3]; KP mice, 7 days, FIG. 5I): increased expression

O=C(NO)c1cnc(NC2(c3cccc(F)c3)CCCCC2)nc1 [Compound C, 2-((1-(3-fluorophenyl)cyclohexyl)amino)-N-hydroxypyrimidine-5-carboxamide]
percentage of CD4+FOXP3+ Tregs within PBMCs ([2]; healthy donor PBMCs, 24 hours): did not significantly impact

O=C(NO)c1cnc(NC2(c3ccccc3)CC2)nc1 [Compound D, N-hydroxy-2-((1-phenylcyclopropyl)amino)pyrimidine-5-carboxamide]
percentage of CD4+FOXP3+ Tregs within PBMCs ([2]; healthy donor PBMCs, 24 hours): effect was still present

Nc1ccccc1NC(=O)c1ccc(CNC(=O)OCc2cccnc2)cc1 [Entinostat, entinostat, reference compound]
expression of CD86 on CD14+ monocytes [1]: neither addition of DMSO nor entinostat up-regulated
expression of MHC class II molecules on CD14+ monocytes [1]: neither addition of DMSO nor entinostat up-regulated
expression of CD69 activation marker on conventional CD8+ and CD4+ T cells [1]: not
percentage of CD4+FOXP3+ Tregs within PBMCs ([2]; healthy donor PBMCs, 24 hours): effect was still present

Cc1sc2c(c1C)C(c1ccc(Cl)cc1)=NC(CC(=O)OC(C)(C)C)c1nnc(C)n1-2 (stereo not drawn) [JQ1]
suppressive function of Tregs vs unexposed counterparts ([9]; CFSE dilution, FIG. 7C): less suppressive
expression levels of Foxp3 on Tregs [9, 13]: diminished expression levels
expression levels of PD-1 on Tregs [9, 13]: diminished expression levels
Treg fractions/proportions in tumors ([4]; 4-6 weeks, FIG. 9B): more substantial reduction
tumor growth [7]: moderate

CN1CCc2c(c3ccccc3n2Cc2ccc(C(=O)NO)cc2)C1 [Tubastatin, Tubastatin A, reference compound]
percentage of CD4+FOXP3+ Tregs within PBMCs ([2]; healthy donor PBMCs, 24 hours): did not significantly impact
